# Where a SMILES comes first, the peptide text is derived from it. [ ]: non-standard residue; d: D form. The star is where a group is joined. Bip(2'-Et,4'-O(CH2)4NH2) = CCc1cc(OCCCCN)ccc1-c1ccc(C[C@H](N)C(=O)O)cc1; Malonyl(2,2-Me2,histaminyl) = CC(C)(C(=O)NCCc1cnc[nH]1)C(=O)*; Nva(5-(3,5-Me2Ph)) = Cc1cc(C)cc(CCC[C@H](N)C(=O)O)c1; Ala(1H-tetrazol-5-yl) = N[C@@H](Cc1nnn[nH]1)C(=O)O; αMePhe(2-F) = C[C@](N)(Cc1ccccc1F)C(=O)O; Desaminohistidyl = O=C(CCc1c[nH]cn1)*; X1 = O=C(CCCCCc1cnc[nH]1)*; NHPh = c1ccc(N*)cc1
# Legend:
# [1] = biological target: human glucagon-like peptide 2 receptor (GLP2R) (Homo sapiens (Human), UniProt O95838); test: CRE-luciferase reporter bioassay, HEK293/Myc-hGLP2R/Cre-Luc cell line; format: cell-based; conditions: HEK293/Myc-hGLP2R/Cre-Luc
# Chain of human glucagon-like peptide 2 receptor (GLP2R) (O95838 whole entry): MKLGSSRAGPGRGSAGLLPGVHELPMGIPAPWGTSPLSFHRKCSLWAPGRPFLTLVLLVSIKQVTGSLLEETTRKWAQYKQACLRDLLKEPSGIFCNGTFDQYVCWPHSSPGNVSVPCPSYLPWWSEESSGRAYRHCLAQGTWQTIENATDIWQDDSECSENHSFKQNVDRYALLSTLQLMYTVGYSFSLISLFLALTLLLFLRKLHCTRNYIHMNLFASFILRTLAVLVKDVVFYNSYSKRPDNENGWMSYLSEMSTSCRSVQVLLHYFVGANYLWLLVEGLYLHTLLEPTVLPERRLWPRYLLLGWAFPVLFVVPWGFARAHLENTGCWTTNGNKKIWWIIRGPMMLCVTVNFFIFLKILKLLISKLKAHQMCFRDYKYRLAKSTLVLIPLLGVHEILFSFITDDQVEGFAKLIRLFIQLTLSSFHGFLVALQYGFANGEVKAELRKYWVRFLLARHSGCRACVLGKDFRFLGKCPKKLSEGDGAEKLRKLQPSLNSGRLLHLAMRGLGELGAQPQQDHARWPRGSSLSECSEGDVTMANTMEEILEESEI
# Procedure: Cells were incubated overnight at 37° C. in 5% CO2. […] Plates were incubated for 5.5 h at 37° C. in 5% CO2. For end-point measurement, 100 μL/well of One-Glo reagent (Promega, #E6051) was added and plates were kept at room temperature for 5-10 minutes. Luciferase activity was measured on Envision Multilabel Plate Reader (Perkin Elmer) in Luminescent mode. The relative light units (RLU) values were obtained and the results were analyzed using nonlinear regression with GraphPad Prism software (GraphPad).
# human GLP1R [2] = biological target: T1, human GLP1R (Homo sapiens (Human), UniProt P43220); test: Human GLP1R cAMP accumulation assay (HEK293 cells over-expressing human GLP-1R); format: cell-based; conditions: HEK293/hGLP1R cells, 30 min
# T1 sequence (P43220 24-463): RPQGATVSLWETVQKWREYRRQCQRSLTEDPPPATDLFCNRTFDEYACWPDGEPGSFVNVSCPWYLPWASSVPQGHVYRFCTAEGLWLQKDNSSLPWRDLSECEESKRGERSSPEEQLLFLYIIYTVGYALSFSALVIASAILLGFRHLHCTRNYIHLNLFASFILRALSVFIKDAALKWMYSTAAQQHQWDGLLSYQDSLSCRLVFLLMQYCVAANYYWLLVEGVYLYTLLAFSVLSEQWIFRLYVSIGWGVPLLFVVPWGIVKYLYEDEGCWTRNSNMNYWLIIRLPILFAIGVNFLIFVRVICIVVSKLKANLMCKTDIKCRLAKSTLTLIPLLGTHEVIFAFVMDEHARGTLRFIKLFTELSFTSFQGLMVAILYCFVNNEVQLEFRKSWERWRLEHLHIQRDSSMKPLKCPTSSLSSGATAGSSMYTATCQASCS
# Procedure: The functional activity of the test compounds for agonizing GLP1R were evaluated using a cell-based assay. For the assay, HEK293 cells over-expressing full length human GLP-1R were utilized and the downstream cAMP accumulation was assessed as a measure of human GLP-1R stimulation. […] Diluted compounds were transferred to OptiPlates (100 nL/well) using an Echo liquid handler. HEK293/hGLP1R cells were thawed in 37° C. water-bath, washed 2 times with HBSS and re-suspended in assay buffer (HBSS+5 mM HEPES+500 μM IBMX+0.1% BSA). […] After centrifugation, the assay plate was incubated at 23° C. for 30 min. The reaction was terminated by adding 10 μL of lysis buffer containing D2-cAMP and a cAMP-antibody from the cyclic AMP immunoassay kit (Cisbio, Cat #62AM4PEJ). […] The levels of cAMP per well were calculated using a standard curve generated by GraphPad Prism. […] EC50 values were fitted from a four-parameter logistic equation over a 10-point response curve (GraphPad Prism).
# HEK293/CRE-Luc cells = test: cAMP responsive luciferase reporter assay, HEK293/CRE-Luc cells (no hGLP1R expression); format: cell-based, human
# Source text: (§1) To test the activity of GLP1R agonist payloads, GLP1R agonist linker-payloads (LPs), and anti-GLP1R antibody tethered drug conjugates (ATDCs) of the disclosure, a cell-based cAMP responsive luciferase reporter assay was developed. To generate the assay cell line, the firefly luciferase gene was placed under the control of a cAMP response element (CRE) located upstream of a minimal promoter and transfected into HEK293 cells and referred to herein as HEK293/CRE-Luc cells.
# (§2) Three-fold serial dilutions of free payloads or LPs were prepared in 100% DMSO, transferred to fresh assay media, and added to the cells at a final constant DMSO concentration of 0.2%. The last well in the plate served as a blank control containing only the assay media and 0.2% DMSO (untreated well) and was plotted as a continuation of the 3-fold serial dilution. Four to six hours later, luciferase activity was determined after the addition of One-Glo™ reagent (Promega, Cat #E6130) to each well. Relative light units (RLUs) were measured on an Envision luminometer (PerkinElmer) and EC50 values were determined using a four-parameter logistic equation over a 12-point dose response curve (GraphPad Prism). The signal to noise (S/N) was determined by taking the ratio of the highest RLU on the dose response curve to the RLU in the untreated wells.
# human GLP1R [3] = biological target: T1, human GLP1R; test: cAMP responsive luciferase reporter assay, HEK293/CRE-Luc/hGLP1R cells; format: cell-based; conditions: for HEK293/CRE-LUC/hGLP1R S/N: highest RLU / RLU of untreated wells; for HEK293/CRE-LUC/hGLP1R Relative Potency (% P8 EC50) / HEK293/CRE-LUC/hGLP1R Relative Signal:Noise (% P8): relative to P8 of the same experiment
# Source text: as §1, §2
# GLP1R agonist linker payloads were conjugated to anti-hGLP1R antibodies via N-terminal heavy or light chain Q tags. Several resulting anti-GLP1R antibody tethered drug conjugates (ATDCs) were tested for activity in the HEK293/CRE-Luc/hGLP1R reporter assay as described above for the free GLP1R payload and linker-payload agonists.
# [4] = Plasma stability of payloads and linker-payloads, human plasma; format: in vitro ADME; conditions: for half-life at 2 µM: human, pooled plasma, pH 7.4, payload properties table, species not given, read-out: Plasma stability t½ (converted)
# Procedure: The plasma stability of payloads and linker payloads of the disclosure were measured. For the assay, pooled frozen plasma (human, mouse or monkey) was thawed in cold water or a 37° C. water bath prior to experiment. Plasma was centrifuged at 4000 rpm for 5 min if any clots were observed, they were subsequently removed. If required, the pH was adjusted to 7.4±0.1. For the preparation of compounds and positive controls, a 1 mM intermediate solution was prepared by diluting 10 μL of their stock solution with 90 μL DMSO; a 1 mM intermediate solution of the positive control (Propantheline) was prepared by diluting 10 μL of its stock solution with 90 μL ultrapure water. […] 98 μL of plasma was spiked with 2 μL of dosing solution (100 μM) to achieve the final concentration of 2 μM in duplicate. Samples were then incubated at 37° C. in a water bath. […] At each time point, 400 μL of stop solution (200 ng/mL tolbutamide plus 200 ng/mL labetalol in 50% ACN/MeOH) was added to precipitate protein and mixed thoroughly. Sample plates were then centrifuged at 4,000 rpm for 10 min. An aliquot of supernatant (50 μL) was transferred from each well and mixed with 100 μL ultra-pure water. The samples were then shaken at 800 rpm for approximately 10 min before submitting for LC-MS/MS analysis.
SMILES,CRE-dependent reporter activity [1],EC50 (human GLP1R [2]) [nM],EC50 (HEK293/CRE-Luc cells) [nM],HEK293/CRE-LUC S/N (HEK293/CRE-Luc cells),HEK293/CRE-LUC/hGLP1R S/N (human GLP1R [3]),HEK293/CRE-LUC/hGLP1R Relative Potency (% P8 EC50) (human GLP1R [3]) [%],HEK293/CRE-LUC/hGLP1R Relative Signal:Noise (% P8) (human GLP1R [3]) [%],Human plasma stability assay T½ ([4]; tested for 1 day (A)) [h],half-life at 2 µM [4] [h],Human plasma stability assay T½ ([4]; tested for 3 days (C)) [h],Human plasma stability assay T½ ([4]; tested for 2 hrs (B)) [h]
"CC[C@H](C)[C@H](NC(=O)[C@H](Cc1ccccc1)NC(=O)[C@H](CC(=O)O)NC(=O)[C@H](CCCNC(=N)N)NC(=O)[C@H](C)NC(=O)[C@H](C)NC(=O)[C@H](CC(C)C)NC(=O)[C@H](CC(N)=O)NC(=O)[C@H](CC(=O)O)NC(=O)[C@H](CC(C)C)NC(=O)[C@@H](NC(=O)[C@@H](NC(=O)[C@H](CC(N)=O)NC(=O)[C@H](CCSC)NC(=O)[C@H](CCC(=O)O)NC(=O)[C@H](CC(=O)O)NC(=O)[C@H](CO)NC(=O)[C@H](Cc1ccccc1)NC(=O)[C@H](CO)NC(=O)CNC(=O)[C@H](CC(=O)O)NC(=O)[C@H](C)NC(=O)[C@@H](N)Cc1c[nH]cn1)[C@@H](C)O)[C@@H](C)CC)C(=O)N[C@@H](CC(N)=O)C(=O)N[C@@H](Cc1c[nH]c2ccccc12)C(=O)N[C@@H](CC(C)C)C(=O)N[C@H](C(=O)N[C@@H](CCC(N)=O)C(=O)N[C@H](C(=O)N[C@@H](CCCCN)C(=O)N[C@H](C(=O)N[C@H](C(=O)N[C@@H](CC(=O)O)C(=O)O)[C@@H](C)O)[C@@H](C)CC)[C@@H](C)O)[C@@H](C)CC [GLP2, reference compound]",activated individual cell lines as expected,–,–,–,–,–,–,–,–,–,–
"CCc1cc(OCCCCNC(=O)CNC(=O)CNC(=O)CNC(=O)CNC(=O)[C@H](CO[C@@H]2OC(CO)[C@@H](O)[C@H](O)C2O)NC(=O)CCNC(=O)OC[C@@H]2[C@@H]3CCC#CCC[C@@H]32)ccc1-c1ccc(C[C@H](NC(=O)[C@H](CC(=O)O)NC(=O)[C@H](CO)NC(=O)[C@@H](NC(=O)[C@](C)(Cc2ccccc2F)NC(=O)[C@@H](NC(=O)CNC(=O)[C@H](Cc2nn[nH]n2)NC(=O)C(C)(C)C(=O)NCCc2cnc[nH]2)[C@@H](C)O)[C@@H](C)O)C(=O)N[C@@H](CCCc2cc(C)cc(C)c2)C(N)=O)cc1 (stereo partly drawn) [LP18, BCN-NHC2H4CO-(glucose) SG4-P9]",–,0.458,–,–,–,–,–,–,–,–,–
"CCc1cc(OCCCCN)ccc1-c1ccc(C[C@H](NC(=O)[C@H](CC(=O)O)NC(=O)[C@H](CO)NC(=O)[C@@H](NC(=O)[C@](C)(Cc2ccccc2F)NC(=O)[C@@H](NC(=O)CNC(=O)[C@H](Cc2nn[nH]n2)NC(=O)CCCCCc2cnc[nH]2)[C@@H](C)O)[C@@H](C)O)C(=O)N[C@@H](CCCc2cc(C)cc(C)c2)C(N)=O)cc1 [P11] (X1-[Ala(1H-tetrazol-5-yl)]GT[αMePhe(2-F)]TSD[Bip(2'-Et,4'-O(CH2)4NH2)][Nva(5-(3,5-Me2Ph))]-NH2)",–,–,> 200,1.1,54.8,0.8,83.4,>57.81,> 57.8,–,–
"CCc1cc(OCCCCN)ccc1-c1ccc(C[C@H](NC(=O)[C@H](CC(=O)O)NC(=O)[C@H](CO)NC(=O)[C@@H](NC(=O)[C@](C)(Cc2ccccc2F)NC(=O)[C@@H](NC(=O)CNC(=O)[C@H](Cc2nn[nH]n2)NC(=O)CNC(=O)CCc2c[nH]cn2)[C@@H](C)O)[C@@H](C)O)C(=O)N[C@@H](CCCc2cc(C)cc(C)c2)C(N)=O)cc1 [P12] (Desaminohistidyl-G[Ala(1H-tetrazol-5-yl)]GT[αMePhe(2-F)]TSD[Bip(2'-Et,4'-O(CH2)4NH2)][Nva(5-(3,5-Me2Ph))]-NH2)",–,–,> 200,1.2,76.4,46.5,116.2,>57.81,> 57.8,–,–
"CCc1cc(OCCCCN)ccc1-c1ccc(C[C@H](NC(=O)[C@H](CC(=O)O)NC(=O)[C@H](CO)NC(=O)[C@@H](NC(=O)[C@](C)(Cc2ccccc2F)NC(=O)[C@@H](NC(=O)CNC(=O)[C@H](Cc2nn[nH]n2)NC(=O)[C@H](C)NC(=O)[C@H](Cc2c[nH]cn2)NC(=O)[C@@H](N)CCC(N)=O)[C@@H](C)O)[C@@H](C)O)C(=O)N[C@@H](CCCc2cc(C)cc(C)c2)C(N)=O)cc1 [P13] (H-QHA[Ala(1H-tetrazol-5-yl)]GT[αMePhe(2-F)]TSD[Bip(2'-Et,4'-O(CH2)4NH2)][Nva(5-(3,5-Me2Ph))]-NH2)",–,–,> 200,1.2,69.5,1.5,105.6,16.9,16.9,–,–
CCc1cc(OCCCCN)ccc1-c1ccc(C[C@H](NC(=O)[C@H](CC(=O)O)NC(=O)[C@H](CO)NC(=O)[C@@H](NC(=O)[C@](C)(Cc2ccccc2F)NC(=O)[C@@H](NC(=O)CNC(=O)[C@H](CCC(N)=O)NC(=O)C(C)(C)C(=O)NCCc2cnc[nH]2)[C@@H](C)O)[C@@H](C)O)C(=O)N[C@@H](CCCc2cc(C)cc(C)c2)C(N)=O)cc1 [P21],–,–,> 200,1.3,58.8,0.7,89.5,–,> 57.8,>173.4,–
"CCc1cc(OCCCCN)ccc1-c1ccc(C[C@H](NC(=O)[C@H](CC(=O)O)NC(=O)[C@H](CO)NC(=O)[C@@H](NC(=O)[C@](C)(Cc2ccccc2F)NC(=O)[C@@H](NC(=O)CNC(=O)[C@H](Cc2nn[nH]n2)NC(=O)C(C)(C)C(=O)NCCc2cnc[nH]2)[C@@H](C)O)[C@@H](C)O)C(=O)N[C@@H](CCCc2cc(C)cc(C)c2)C(=O)Nc2ccccc2)cc1 [P23] ({Malonyl(2,2-Me2,histaminyl)}-[Ala(1H-tetrazol-5-yl)]GT[αMePhe(2-F)]TSD[Bip(2'-Et,4'-O(CH2)4NH2)][Nva(5-(3,5-Me2Ph))]-NHPh)",–,–,> 200,1.6,57.1,103.0,86.9,–,–,–,10.74

# Source: patent US20250161476A1 (REGENERON PHARMACEUTICALS, INC., priority 2020, published 2025)
